Among the data in patent publication US20260184726A1, “HETEROCYCLIC COMPOUNDS AS KINASE INHIBITORS, COMPOSITIONS, AND METHODS OF USE THEREOF” (JS INNOMED HOLDINGS LTD., priority 2022, published 2026) are GI50 and IC50 values, retold here.

In one assay the target is T1, BAF3-KIF5B-RET cells (Homo sapiens, UniProt P07949).
T1 construct: fused on or other part: P33176 (Kinesin-1 heavy chain)
In words: BAF3-KIF5B-RET Cell Proliferation Assay (CellTiter-Glo). Format: cell-based. The conditions noted are these: growth inhibition, 72 hours; Table 2; read-out: BA/F3-KIF5B-RET Cellular activity. The method, boiled down:
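Ba/F3 cells driven by KIF5B-RET (wild-type, V804M or G810R) or TEL-RET-M918T, 2,000 per well in RPMI/10% FBS, attached 24 h. Treated 72 h at 37° C with compound from 0.00015 to 1 μM final, 0.1% DMSO. CellTiter-Glo luminescence relative to DMSO wells gave IC50.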
In general terms: Cellular ATP, detected with luciferase, serves as a proxy for viable cell number.

For another assay, the target named is T2, human RET kinase (Homo sapiens, UniProt P07949).
T2 construct: purchased Carna 08-159
T2 sequence (P07949 29-1114): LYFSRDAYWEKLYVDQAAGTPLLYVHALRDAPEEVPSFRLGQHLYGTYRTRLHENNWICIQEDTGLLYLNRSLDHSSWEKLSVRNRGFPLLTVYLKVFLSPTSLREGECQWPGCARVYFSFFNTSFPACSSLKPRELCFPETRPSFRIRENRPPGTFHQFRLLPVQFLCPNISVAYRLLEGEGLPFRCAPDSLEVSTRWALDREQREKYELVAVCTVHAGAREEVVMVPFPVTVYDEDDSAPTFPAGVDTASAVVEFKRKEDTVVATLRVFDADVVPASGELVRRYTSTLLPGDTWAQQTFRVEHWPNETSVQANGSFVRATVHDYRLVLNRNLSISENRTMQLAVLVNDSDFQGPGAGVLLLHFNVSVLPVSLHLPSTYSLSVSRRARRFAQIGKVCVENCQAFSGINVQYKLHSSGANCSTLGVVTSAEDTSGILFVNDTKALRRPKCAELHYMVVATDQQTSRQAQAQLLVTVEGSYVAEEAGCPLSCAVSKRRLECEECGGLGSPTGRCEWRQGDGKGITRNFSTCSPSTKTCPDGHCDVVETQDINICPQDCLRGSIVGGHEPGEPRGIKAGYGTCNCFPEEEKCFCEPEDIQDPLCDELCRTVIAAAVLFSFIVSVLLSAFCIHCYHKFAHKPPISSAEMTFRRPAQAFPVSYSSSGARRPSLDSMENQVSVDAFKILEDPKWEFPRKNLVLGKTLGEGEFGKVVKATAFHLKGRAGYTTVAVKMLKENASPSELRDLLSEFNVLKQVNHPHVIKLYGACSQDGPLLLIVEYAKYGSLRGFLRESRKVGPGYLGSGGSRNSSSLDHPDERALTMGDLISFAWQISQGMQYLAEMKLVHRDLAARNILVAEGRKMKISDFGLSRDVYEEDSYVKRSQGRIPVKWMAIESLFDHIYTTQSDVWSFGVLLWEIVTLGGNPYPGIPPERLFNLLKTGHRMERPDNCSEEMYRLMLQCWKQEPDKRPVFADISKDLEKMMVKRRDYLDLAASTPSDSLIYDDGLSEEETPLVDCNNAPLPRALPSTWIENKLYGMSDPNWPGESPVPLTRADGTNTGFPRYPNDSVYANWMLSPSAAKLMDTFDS
In words: RET Kinase Assay (mobility shift assay, ATP at Km). The format is biochemical. The settings on record: 23 μM ATP (Km), read-out: RET Enzymatic Activity. Here is the method: Compounds were tested by Mobility shift assay with ATP concentration at Km. The assay used human RET kinase (Carna 08-159). Test compounds were prepared and diluted in DMSO in 3-fold serial dilutions to 50× of the final testing concentrations. The compounds were then further diluted to 5× by the kinase reaction buffer (50 mM HEPES pH 7.5, 0.0015% Brij-35). The enzymatic reaction for compound testing was performed in a white 384-well polypropylene plate (Corning 3573) with a total reaction volume of 25 μl containing 7 nM RET, 3 μM peptide substrate FAM-P2 (GL Biochem 112394), and 23 μM ATP (Sigma A7699-1G). The assay started with loading RET diluted in kinase reaction buffer to wells, followed by addition of equal volume of 5× compounds for 15-min incubation at the room temperature for pre-treatment. The enzymatic reaction was initiated by addition of mixture of the substrate and ATP prepared in kinase reaction buffer. After incubation at 28° C. for one hour, 25 μl of stopper buffer (a mixture of 100 mM HEPES pH 7.5 buffer, 0.015% Brij-35, 50 mM EDTA and 0.2% of coating reagent 3 (Cliper Lifesciences)). After 30 minutes of incubation at room temperature, the plate was read in a Caliper. Percent of control was calculated as the percentage of compound-treated vs 2% DMSO vehicle-treated. The dose-response curves were generated and the IC50 values were calculated by nonlinear sigmoid curve fitting using XLFit.

The structures appear in SMILES notation.

T1 sequence (P07949 whole entry, change not shown, the tested form may be a part): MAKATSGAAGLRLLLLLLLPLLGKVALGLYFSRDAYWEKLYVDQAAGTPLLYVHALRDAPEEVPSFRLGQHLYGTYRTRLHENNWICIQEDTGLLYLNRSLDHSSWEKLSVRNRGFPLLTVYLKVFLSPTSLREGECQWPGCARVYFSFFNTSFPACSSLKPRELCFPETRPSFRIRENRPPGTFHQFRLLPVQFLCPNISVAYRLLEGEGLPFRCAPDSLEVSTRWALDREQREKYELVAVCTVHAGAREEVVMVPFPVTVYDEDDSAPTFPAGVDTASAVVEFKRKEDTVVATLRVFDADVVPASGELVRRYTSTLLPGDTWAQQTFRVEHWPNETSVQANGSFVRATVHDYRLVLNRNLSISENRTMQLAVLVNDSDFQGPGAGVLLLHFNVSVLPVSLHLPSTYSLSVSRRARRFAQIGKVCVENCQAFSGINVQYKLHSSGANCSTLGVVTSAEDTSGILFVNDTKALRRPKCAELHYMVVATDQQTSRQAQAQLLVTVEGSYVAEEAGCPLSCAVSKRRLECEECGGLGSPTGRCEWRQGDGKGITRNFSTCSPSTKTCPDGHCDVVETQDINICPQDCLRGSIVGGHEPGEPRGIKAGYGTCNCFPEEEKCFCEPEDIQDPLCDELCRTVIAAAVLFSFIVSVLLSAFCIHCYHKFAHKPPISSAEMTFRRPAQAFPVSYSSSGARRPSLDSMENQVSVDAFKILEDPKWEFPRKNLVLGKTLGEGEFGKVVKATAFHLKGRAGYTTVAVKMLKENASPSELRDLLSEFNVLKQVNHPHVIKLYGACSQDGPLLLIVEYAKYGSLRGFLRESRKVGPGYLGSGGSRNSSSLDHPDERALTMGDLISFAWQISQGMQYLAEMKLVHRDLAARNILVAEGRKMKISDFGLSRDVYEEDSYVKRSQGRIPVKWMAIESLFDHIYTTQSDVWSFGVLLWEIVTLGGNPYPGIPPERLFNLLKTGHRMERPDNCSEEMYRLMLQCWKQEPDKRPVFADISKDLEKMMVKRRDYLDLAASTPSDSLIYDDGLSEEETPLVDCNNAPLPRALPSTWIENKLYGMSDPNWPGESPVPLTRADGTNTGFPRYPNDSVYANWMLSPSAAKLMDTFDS

In the case of `COc1ccc(CN2C3CC2CN(c2ccc(-c4cc(-c5ccc(C(C)(C)NC(C)=O)cn5)cn5ncc(C#N)c45)cn2)C3)cn1` [Example 12, N-(2-(6-(3-cyano-4-(6-(6-((6-methoxypyridin-3-yl)methyl)-3,6-diazabicyclo[3.1.1]heptan-3-yl)pyridin-3-yl)pyrazolo[1,5-a]pyridin-6-yl)pyridin-3-yl)propan-2-yl)acetamide], at BAF3-KIF5B-RET cells, the GI50 amounted to 1 nM. In addition, the IC50 on human RET kinase was found to be 0.4 nM.
